Patent publication US7947740B2, “Bimatoprost crystalline form I” (Finetech Pharmaceutical Ltd, priority 2006, dated 2011)

What was measured:
[1] = Storage stability (retest period) of the crystalline form; type: physicochemical
Protocol: (§1) Stability data supports the retest period of not less than 6 months if bimatoprost crystalline form I is stored in an appropriate container at 2 to 8° C. and at 25° C.

[2] = Thermodynamic stability of the crystalline modifications of bimatoprost; type: physicochemical; conditions: temperature range between −70 and +30° C.
Protocol: as §1
The importance of bimatoprost crystalline form I rests primarily (but not exclusively) in its thermodynamic stability. […] For example, the crystalline form I may be easily prepared by recrystallizing, triturating, or reslurring of crystalline form A.

CCNC(=O)CCC/C=C\C[C@@H]1[C@@H](/C=C/[C@@H](O)CCc2ccccc2)[C@H](O)C[C@@H]1O [Bimatoprost crystalline form I, (9S,11R,15S)-9,11,15-trihydroxy-17-phenyl-18,19,20-trinor-5Z,13E-prostadienoic acid ethylamide]
retest period supported by stability data ([1]; stored in an appropriate container at 2 to 8° C.): not less than 6 months | retest period supported by stability data ([1]; stored in an appropriate container at 25° C.): not less than 6 months | relative stability among crystalline modifications of bimatoprost [2]: most stable crystalline modification
